{
  "source": "paper PMC11480361",
  "about": "“Design of a Cereblon construct for crystallographic and biophysical studies of protein degraders” (Nature Communications, 2024)",
  "key": {"CRBN^TBD and BRD4^BD2": {"test_system": "T1, CRBN^TBD and BRD4^BD2", "T1 construct": "Human Brd4^BD2 (residues 333–460, UniProt ID: O60885); GST (cleaved yes); His6; His6 (N); made in house; host or cells: E. coli BL21(DE3)", "assay": "TR-FRET ternary complex formation with BRD4^BD2", "format": "binding, human", "settings": "for TR-FRET signal: CRBNTBD, source data Fig. 3h, replicates", "protocol": "(§1) The mixture was incubated in the dark with gentle rocking for 1 hour before readout using a PHERAstar microplate reader (BMG Labtech) with Pherastar software (version 5.70 R5). All incubations were conducted at 20 °C. Data were fitted by non-linear regression (curve fit) using Prism software (GraphPad version 10). Experiments were conducted in triplicate and were the average of three repeats."}, "[1]": {"test_system": "T2, CRBN^ΔN:DDB1^ΔBPB and BRD4^BD2", "T2 construct": "a construct lacking the unstructured N-terminal region of CRBN (CRBN^ΔN:DDB1); Human Brd4^BD2 (residues 333–460, UniProt ID: O60885); His6 (N); purchased Selvita", "assay": "TR-FRET ternary complex formation with BRD4^BD2", "format": "binding, human", "settings": "for TR-FRET signal: CRBNΔN-DDB1ΔBPB, source data Fig. 3h, replicates", "protocol": "as §1"}, "CRBN^midi and BRD4^BD2 [2]": {"target": "T3, CRBN^midi and BRD4^BD2 (Homo sapiens, UniProt O60885+Q96SW2, C287N/C343E/C78I/DEL188-248/G302D/I92V/INS187GSG/K116N/L342R/L423I/Q134E/R283W/T359I/V293S)", "T3 construct": "amino acids 41-187 followed by a Gly-Ser-Gly linker and amino acids 249-426; Human Brd4^BD2 (residues 333–460, UniProt ID: O60885); His6 (N); made in house; host or cells: E. coli BL21(DE3)", "T3 sequence (Q96SW2 with tags, fused parts or gaps with the stated changes limits assumed, other chains not shown)": "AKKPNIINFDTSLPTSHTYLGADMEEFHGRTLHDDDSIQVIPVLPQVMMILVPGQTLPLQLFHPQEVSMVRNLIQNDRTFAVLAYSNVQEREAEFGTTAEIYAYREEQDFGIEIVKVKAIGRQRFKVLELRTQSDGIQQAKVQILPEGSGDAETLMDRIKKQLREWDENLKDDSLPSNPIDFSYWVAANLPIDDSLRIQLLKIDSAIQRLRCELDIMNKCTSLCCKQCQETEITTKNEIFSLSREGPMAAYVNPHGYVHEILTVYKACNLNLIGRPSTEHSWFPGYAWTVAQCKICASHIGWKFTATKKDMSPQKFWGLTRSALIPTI", "assay": "TR-FRET ternary complex formation with BRD4^BD2", "format": "binding", "settings": "for TR-FRET signal: CRBNmidi, source data Fig. 3h, replicates", "protocol": "as §1"}, "CRBN^midi": {"target": "T4, CRBN^midi (Homo sapiens, UniProt Q96SW2, C287N/C343E/C78I/DEL188-248/G302D/I92V/INS187GSG/K116N/L342R/L423I/Q134E/R283W/T359I/V293S)", "T4 construct": "amino acids 41-187 followed by a Gly-Ser-Gly linker and amino acids 249-426; His6 (N, cleaved yes); made in house; host or cells: E. coli BL21(DE3)", "T4 sequence (Q96SW2 with tags, fused parts or gaps with the stated changes limits assumed)": "as the sequence (Q96SW2 with tags, fused parts or gaps with the stated changes limits assumed, other chains not shown) above", "assay": "SPR, CRBN^midi on chip, binary", "format": "binding", "protocol": "All SPR measurements were carried out on a Biacore^TM 8 K (Cytiva, Biacore Insight Control Software version 5.0.18.22405). CRBN^midi was immobilized via a His6 tag on a NiHC 1500 M chip (XanTec) at 25 °C. The chip surface was prepared for ligand (CRBN^midi) capture as per manufacturer’s instructions, flowing 350 mM EDTA, followed by buffer, then loaded using 5 mM NiCl2 followed by buffer. For binary measurements CRBN^midi was diluted to 350 nM and flowed at 10 µL/min. for 420 s to capture a final bound response of 240 RUs. For […] measurements, 10 nM of CRBN^midi was flowed at 10 µl/min. for 420 s to capture a final bound response of approximately 10,000 RUs. The buffer for immobilization and all kinetic measurements was 50 mM Tris pH 8.0, 150 mM NaCl, 0.25 mM TCEP, 0.005% (v/v) Tween-20 and 2% (v/v) DMSO.\n(§2) For ternary experiments the analyte was supplemented with 50 µM BRD4^BD2. Each concentration point was flowed independently at 50 µL/min. with an association time of 150 s followed by 500 s dissociation. All measurements were carried out at 20 °C.\n(§3) Data was analyzed using Biacore^TM Insight Evaluation Software (version 4.0.8.20368). Raw sensograms were solvent corrected, followed by reference and blank subtraction. […] Alpha, a parameter indicative of cooperativity, was calculated by dividing binary KD by ternary KD."}, "CRBN^midi and BRD4^BD2 [3]": {"target": "T3, CRBN^midi and BRD4^BD2", "assay": "SPR, CRBN^midi on chip, ternary (analyte with 50 µM BRD4^BD2)", "format": "binding", "protocol": "All SPR measurements were carried out on a Biacore^TM 8 K (Cytiva, Biacore Insight Control Software version 5.0.18.22405). […] The buffer for immobilization and all kinetic measurements was 50 mM Tris pH 8.0, 150 mM NaCl, 0.25 mM TCEP, 0.005% (v/v) Tween-20 and 2% (v/v) DMSO.\nas §2, §3"}, "[4]": {"settings": "CRBN^midi immobilization level 9581"}, "[5]": {"settings": "CRBN^midi immobilization level 240"}},
  "note": "“And” between values parts separate entries of the source, which are not always exact repeats. Identical values can stand only once.",
  "data": [
    {"smiles": "Cc1nnc2n1-c1ccc(-c3cnn(CCCCCCCN4CCC(c5cccc6c5CN(C5CCC(=O)NC5=O)C6=O)CC4)c3)cc1C(c1ccc(Cl)cc1)=NC21CC1", "note": "(centres unmarked) [CFT-1297]", "values": [
      {"measurement": "TR-FRET signal", "setting": "CRBN^TBD and BRD4^BD2; CFT-1297 6.3657e-10 M", "value": "-100 and -96 and -91 and -28 and -32 and -31 and -4 and -7 and 0"},
      {"measurement": "TR-FRET signal", "setting": "CRBN^TBD and BRD4^BD2; CFT-1297 2.01156e-9 M", "value": "20 and 18 and 19 and 27 (2×) and 31 and 16 and 0 and 9"},
      {"measurement": "TR-FRET signal", "setting": "CRBN^TBD and BRD4^BD2; CFT-1297 6.35653e-9 M", "value": "17 and 14 and 10 and 42 and 47 and 37 and 20 and 23 and 11"},
      {"measurement": "TR-FRET signal", "setting": "CRBN^TBD and BRD4^BD2; CFT-1297 2.00866e-8 M", "value": "45 and 44 and 40 and 53 and 52 (2×) and 41 and 50"},
      {"measurement": "TR-FRET signal", "setting": "CRBN^TBD and BRD4^BD2; CFT-1297 6.34738e-8 M", "value": "117 and 115 and 122 and 101 and 103 and 107 and 98 and 97 and 102"},
      {"measurement": "TR-FRET signal", "setting": "CRBN^TBD and BRD4^BD2; CFT-1297 2.00577e-7 M", "value": "132 and 129 and 128 and 106 and 105 and 108 and 111 and 110"},
      {"measurement": "TR-FRET signal", "setting": "CRBN^TBD and BRD4^BD2; CFT-1297 6.33824e-7 M", "value": "109 and 104 and 106 and 98 and 78 and 100"},
      {"measurement": "TR-FRET signal", "setting": "CRBN^TBD and BRD4^BD2; CFT-1297 2.00288e-6 M", "value": "112 and 117 and 108 and 92 and 89 and 102 and 91 and 95 and 90"},
      {"measurement": "TR-FRET signal", "setting": "CRBN^TBD and BRD4^BD2; CFT-1297 6.32911e-6 M", "value": "131 (2×) and 129 and 112 and 107 and 117 and 110 and 105"},
      {"measurement": "ternary complex formation by TR-FRET", "setting": "CRBN^TBD and BRD4^BD2; CRBN^TBD, BRD4^BD2", "value": "no significant ternary complex formation was detected"},
      {"measurement": "maximal concentration of bell-shaped TR-FRET profile", "setting": "[1]; CRBN^ΔN:DDB1^ΔBPB, BRD4^BD2", "value": 17, "unit": "nM"},
      {"measurement": "TR-FRET signal", "setting": "[1]; CFT-1297 6.3657e-10 M", "value": "5 and -3 and 2 and 6 and 3 and 13 and 20"},
      {"measurement": "TR-FRET signal", "setting": "[1]; CFT-1297 2.01156e-9 M", "value": "73 and 94 and 64 and 70 and 78 and 68 and 83 and 85 and 77"},
      {"measurement": "TR-FRET signal", "setting": "[1]; CFT-1297 6.35653e-9 M", "value": "339 and 359 and 325 and 342 and 338 and 345 and 352 and 373 and 376"},
      {"measurement": "TR-FRET signal", "setting": "[1]; CFT-1297 2.00866e-8 M", "value": "756 and 794 and 735 and 761 and 799 and 801 and 763 and 726 and 762"},
      {"measurement": "TR-FRET signal", "setting": "[1]; CFT-1297 6.34738e-8 M", "value": "382 (2×) and 392 and 395 and 387 and 370 and 383 and 372 and 363"},
      {"measurement": "TR-FRET signal", "setting": "[1]; CFT-1297 2.00577e-7 M", "value": "131 and 143 and 127 and 140 and 124 and 132 and 129 and 147 and 119"},
      {"measurement": "TR-FRET signal", "setting": "[1]; CFT-1297 6.33824e-7 M", "value": "50 and 51 and 69 and 66 and 56 and 71 and 52 and 54 and 38"},
      {"measurement": "TR-FRET signal", "setting": "[1]; CFT-1297 2.00288e-6 M", "value": "14 and 4 and 16 and 27 and 34 and 33 and -10 and -1 and -13"},
      {"measurement": "TR-FRET signal", "setting": "[1]; CFT-1297 6.32911e-6 M", "value": "11 and 4 and 8 and 21 and 25 and 18 and 13 and 9 and 23"},
      {"measurement": "maximal concentration of bell-shaped TR-FRET profile", "setting": "CRBN^midi and BRD4^BD2 [2]; CRBN^midi, BRD4^BD2", "value": 21, "unit": "nM"},
      {"measurement": "TR-FRET signal", "setting": "CRBN^midi and BRD4^BD2 [2]; CFT-1297 6.3657e-10 M", "value": "120 and 116 and 105 and 148 and 130 and 152 and 174 and 158 and 167"},
      {"measurement": "TR-FRET signal", "setting": "CRBN^midi and BRD4^BD2 [2]; CFT-1297 2.01156e-9 M", "value": "347 and 363 (2×) and 394 and 412 and 387 and 420 (2×) and 430"},
      {"measurement": "TR-FRET signal", "setting": "CRBN^midi and BRD4^BD2 [2]; CFT-1297 6.35653e-9 M", "value": "931 and 924 and 913 and 954 and 948 and 945 and 981 and 982 and 990"},
      {"measurement": "TR-FRET signal", "setting": "CRBN^midi and BRD4^BD2 [2]; CFT-1297 2.00866e-8 M", "value": "1502 and 1521 and 1538 and 1551 and 1571 and 1561 and 1573 and 1559 and 1582"},
      {"measurement": "TR-FRET signal", "setting": "CRBN^midi and BRD4^BD2 [2]; CFT-1297 6.34738e-8 M", "value": "850 and 872 and 886 and 873 and 864 and 854 and 799 and 811 and 813"},
      {"measurement": "TR-FRET signal", "setting": "CRBN^midi and BRD4^BD2 [2]; CFT-1297 2.00577e-7 M", "value": "376 and 352 and 403 and 396 and 394 (2×) and 313 and 326 and 341"},
      {"measurement": "TR-FRET signal", "setting": "CRBN^midi and BRD4^BD2 [2]; CFT-1297 6.33824e-7 M", "value": "185 and 204 and 173 and 213 and 220 and 205 and 126 and 137 and 130"},
      {"measurement": "TR-FRET signal", "setting": "CRBN^midi and BRD4^BD2 [2]; CFT-1297 2.00288e-6 M", "value": "130 and 122 and 145 and 152 and 153 and 147 and 79 and 88 and 84"},
      {"measurement": "TR-FRET signal", "setting": "CRBN^midi and BRD4^BD2 [2]; CFT-1297 6.32911e-6 M", "value": "113 and 129 and 102 and 140 and 135 and 145 and 75 and 68 and 78"},
      {"measurement": "Experimental Rmax / Theoretical Rmax", "setting": "CRBN^midi", "value": 93, "unit": "%"},
      {"measurement": "Kd", "setting": "CRBN^midi", "value": 2100, "unit": "nM"},
      {"measurement": "Experimental Rmax", "setting": "CRBN^midi; [4]", "value": 196},
      {"measurement": "Theoretical Rmax", "setting": "CRBN^midi; [4]", "value": 211},
      {"measurement": "Experimental Rmax / Theoretical Rmax", "setting": "CRBN^midi and BRD4^BD2 [3]", "value": 55, "unit": "%"},
      {"measurement": "cooperativity α (binary KD / ternary KD)", "setting": "CRBN^midi and BRD4^BD2 [3]", "value": 3},
      {"measurement": "Experimental Rmax", "setting": "CRBN^midi and BRD4^BD2 [3]; [5]", "value": 56},
      {"measurement": "Theoretical Rmax", "setting": "CRBN^midi and BRD4^BD2 [3]; [5]", "value": 101}
    ]}
  ]
}
